Measured values: patent US12065470B2, “Zinc-charged peptides for the treatment of cancer and alzheimer's disease” (priority 2022, dated 2024)
Each block holds one compound with its values, some of them ahead of it. Starred links: 1 amine or outer side, 2 acyl side, 3 side chain; linkers in the order of their positions; H or OH if unused. Positions of bridges follow the written chain, without caps; N, C: chain ends. Non-standard residues stand in square brackets, D forms with d. Residues, ends and D or L forms follow the SMILES beside them. Chains are numbered I, II in the order given. No end group written: not given here. Actinocin(9to1) = Cc1c2oc3c(C)ccc(C(=O)[*:1])c3nc-2c(C(=O)[*:2])c(N)c1=O; NMeV = CN[C@H](C(=O)O)C(C)C; Sar = CNCC(=O)O

What was measured:
[1] = test system: HT-29 colon cancer cells; assay: Combination with chemotherapy drugs, apoptosis in HT-29; format: cell-based; settings: for interaction of chemotherapy drug with zinc-charged peptide (apoptosis): drug 6 μg per ml 12 hours, then zinc-charged 4H 4 μM for 6 hours, HT-29
Procedure: To test this, HT-29 colon cancer cells were pre-incubated with various chemotherapy drugs at 6 μg per ml for 12 hours, then zinc-charged 4H at 4 μM was added for an additional 6 hours. Most chemotherapy drugs take up to 48 hours to see substantial apoptosis, and as such, the cells were pre-incubated with chemotherapy drugs first. The chemotherapy drugs tested included actinomycin (“A”), carmustine (“C”), docorubicin (“Dox”), genistin (“G”), 5-FU, and Tarceva.

[2] = test system: normal colon cell line CCD18Co; assay: Glycolysis (lactate) in CCD18Co cell lysate; format: cell-based; settings: FIG. 8a
Procedure: (§1) FIG. 8a is a bar graph depicting the level of glycolysis end product lactate in HT-29 colon cancer cell lysate and of normal CCD18Co colon cell lysate after incubation with zinc-charged peptide 4H compared to a control of unincubated HT-29 cancer cell lysate and unincubated normal CCD18Co colon cell lysate.
(§2) The zinc-charged peptides ability to inhibit glycolysis in other cancer cell lines, such as lung cancer, compared to their normal counterparts was also tested. […] To further study this observed phenomena in vivo, normal mice were fed with the zinc-charged 4H for five days, and the glycolysis of normal brain cells were studied. FIG. 9 depicts the results of this study. For this study, two groups of mice having four mice per group were compared, one being the control and the other being fed 0.5 mg of zinc-charged 4H per mouse per day for 5 days orally. After 5 days, brain and muscle tissue was collected, homogenized, and assayed for glycolysis rate.

[3] = test system: normal WI38 lung cells; assay: Glycolysis (lactate) in WI38 cell lysate; format: cell-based; settings: WI38, FIG. 8b
Procedure: as §1, with “8b” for “8a”, “Calu-1 lung” for “HT-29 colon”, “WI38 lung” for “CCD18Co colon”, “Calu-1 lung” for “HT-29”
as §2

[4] = test system: HT-29 cancer cells; assay: Intracellular glucose-6-phosphate in HT-29; format: cell-based; settings: HT-29, 6 hours of incubation
Procedure: FIG. 6 is a bar graph depicting the level of intracellular Glucose-6-phosphate in HT-29 cancer cells after being incubated with the zinc-charged peptide 4H compared with a control.
(§3) To determine the mechanism of induction of apoptosis to HT-29 cancer cells by the zinc-charged peptides, a low concentration (1 μM) of zinc-charged 4H was incubated with HT-29 cancer cells, followed by biochemical analysis of the cell lysate of the HT-29 cancer cells.
(§4) Furthermore, the decreased lactate was associated with a lower ATP level and a lower Glucose-6-phosphate (G-6-P) level in HT-29 cells.

[5] = biological target: T1, hexokinase II (Homo sapiens, UniProt P52789); assay: In vitro hexokinase II assay; format: biochemical
T1 sequence (P52789 1-917): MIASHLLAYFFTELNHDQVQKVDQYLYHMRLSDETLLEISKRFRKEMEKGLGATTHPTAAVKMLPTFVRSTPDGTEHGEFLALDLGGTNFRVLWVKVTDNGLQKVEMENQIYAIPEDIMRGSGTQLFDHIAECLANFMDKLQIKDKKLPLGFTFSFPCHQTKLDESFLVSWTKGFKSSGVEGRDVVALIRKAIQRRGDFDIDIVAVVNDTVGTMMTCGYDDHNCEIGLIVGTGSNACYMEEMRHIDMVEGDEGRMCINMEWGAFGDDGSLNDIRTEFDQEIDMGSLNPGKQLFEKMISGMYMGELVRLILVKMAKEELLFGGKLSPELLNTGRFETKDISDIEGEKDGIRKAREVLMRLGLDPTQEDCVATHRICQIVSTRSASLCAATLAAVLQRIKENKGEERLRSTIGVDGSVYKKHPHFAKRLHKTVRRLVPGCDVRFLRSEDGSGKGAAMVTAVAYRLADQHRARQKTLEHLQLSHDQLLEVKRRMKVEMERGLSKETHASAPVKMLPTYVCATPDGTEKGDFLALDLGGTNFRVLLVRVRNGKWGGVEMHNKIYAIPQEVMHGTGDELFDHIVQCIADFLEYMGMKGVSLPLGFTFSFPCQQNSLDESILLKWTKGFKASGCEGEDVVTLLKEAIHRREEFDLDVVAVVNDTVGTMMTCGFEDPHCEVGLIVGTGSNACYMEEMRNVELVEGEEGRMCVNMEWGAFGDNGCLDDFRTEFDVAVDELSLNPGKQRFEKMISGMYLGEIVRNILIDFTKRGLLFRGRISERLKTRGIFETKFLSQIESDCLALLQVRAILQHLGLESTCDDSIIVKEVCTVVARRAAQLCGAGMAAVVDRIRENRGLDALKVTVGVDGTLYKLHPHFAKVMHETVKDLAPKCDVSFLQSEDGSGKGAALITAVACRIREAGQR
Procedure: To test confirm that the zinc-charged peptides inhibit hexokinase II resulting in the inhibition of glycolysis, an in vitro hexokinase II assay was performed. FIG. 7 depicts the results of the in vitro hexokinase II assay. In this test, it was observed that hexokinase II was inhibited by zinc-charged 4H in a dose-dependent manner. […] These findings confirm that the zinc-charged peptides inhibit glycolysis at the hexokinase II enzyme level.

[6] = test system: brain ATP; assay: Brain ATP level in mice after oral dosing; format: in vivo; settings: 4H 0.5 mg per mouse per day, 5 days, normal mice
Procedure: FIG. 10 is a bar graph depicting the brain ATP level of normal mice after the mice were orally administered the zinc-charged peptide (4H, 0.5 mg/mouse) for five days compared to a control.
FIG. 11a is a bar graph depicting the brain ATP level of mice after the mice were orally administered the zinc-charged peptide (4H3, 1 mg/mouse) for five days compared to a control.
(§5) In mice fed with 0.5 mg of zinc-charged 4H for 5 days, the brain glycolysis of these mice was enhanced by 44%.
FIGS. 11a-d provide the graphical representations of these observations. FIG. 11a depicts the level of brain ATP in mice that were orally administered zinc-charged 4H3 compared to mice who were given the control. […] FIG. 11b depicts the level of brain Tau protein ATP in mice that were orally administered zinc-charged 4H3 compared to mice who were given the control. In this test, a 2.7 μg protein load was utilized. […] FIG. 11c depicts a retest of FIG. 11b, but with a lower protein load utilized instead. […] Lastly, FIG. 11d depicts the brain P38 MAPK levels in mice that were orally administered zinc-charged 4H3 compared to mice who were given the control. In this test, the mice given the zinc-charged 4H3 saw their brain P38 MAPK levels decrease by 61%.

[7] = test system: HT-29 colon cancer cells; assay: Glycolysis (lactate) in HT-29 cell lysate; format: cell-based
Procedure: as §3, §4, §2

[8] = test system: brain tissue glycolysis; assay: Brain glycolysis in normal mice after oral dosing; format: in vivo; settings: 0.5 mg per mouse per day, 5 days
Procedure: FIG. 9a is a bar graph depicting the level of glycolysis in the brain tissue of normal mice (N=4) after the mice were orally administered the zinc-charged peptide (4H, 0.5 mg/mouse) for five days compared to a control.
as §2, §5

[9] = test system: muscle tissue glycolysis; assay: Muscle glycolysis in normal mice after oral dosing; format: in vivo; settings: 0.5 mg per mouse per day, 5 days
Procedure: FIG. 9b is a bar graph depicting the level of glycolysis in the muscle tissue of normal mice after the mice were orally administered the zinc-charged peptide (4H, 0.5 mg/mouse) for five days compared to a control.
as §2, §5

[10] = biological target: T1, hexokinase II; assay: Subcellular hexokinase II activity in HT-29; format: cell-based; settings: HT-29, 1 μM, 5 hours
Procedure: FIG. 14 is a bar graph depicting the subcellular hexokinase II activity in mitochondria, cytosol, and microsome of HT-29 cells incubated with the zinc-charged peptide (4H, 1 μM, for 5 hours) compared to a control of only the vehicle.
FIGS. 14-16 depicts the testing results validating that the zinc-charged peptides inhibit each of these three bioenergetic pathways. FIG. 14 depicts the subcellular hexokinase II activity in mitochondria, cytosol, and microsome to determine whether the zinc-charged peptides inhibit the hexokinase II activity in mitochondria. For this test, HT-29 cancer cells were incubated with zinc-charged 4H at 1 μM for 5 hours. After incubation, sub-cellular fractions including cytosol, microsome, and mitochondria were prepared and the hexokinase II activity on these sub-cellular fractions were tested.

[11] = test system: Calu-1 lung cancer cells; assay: Glycolysis (lactate) in Calu-1 cell lysate; format: cell-based; settings: Calu-1, FIG. 8b
Procedure: as §1, with “8b” for “8a”, “Calu-1 lung” for “HT-29 colon”, “WI38 lung” for “CCD18Co colon”, “Calu-1 lung” for “HT-29”
as §2

[12] = Water solubility of the peptide; format: physicochemical; settings: uncharged peptide
From the text: The first peptide, listed as SEQ. ID NO. 1 in the accompanying sequence listing, has an amino acid sequence of E-Y-G-L-F-Q-I-S-N-K-L. This peptide, which is derived from natural human alpha-lactalbumin, will be referred to herein as “4H.” The second peptide, listed as SEQ. ID NO. […] This peptide has an amino acid sequence of E-Y-G-L-F-Q-I-S-N-K-K and will be referred to herein as “4H3.” Both these peptides were charged with zinc ions using the disclosed method to activate their apoptotic activities. Further, once these two peptides were charged with zinc ions, additional effects such as reducing Tau protein, increasing brain ATP levels and inhibiting P38 in the brain were observed, showing that these zinc-charged peptides further have a role in treating diseases involving tauopathy, such as Alzheimer's Disease and Parkinson's Disease.
Disclosed herein are two zinc-charged chemically synthesized peptides based upon the alpha-lactalbumin that are able to treat cancer and diseases involving tauopathy once activated by the disclosed method of charging the peptides with zinc ions. The first peptide, 4H, has an amino acid sequence of E-Y-G-L-F-Q-I-S-N-K-L (Seq. No. 1). The second peptide, 4H3, has an amino acid sequence of E-Y-G-L-F-Q-I-S-N-K-K (Seq. No. 2). […]

[13] = test system: various cancer cell lines; assay: Apoptosis-inducing activity on various cancer cell lines (earlier work); format: cell-based
From the text: Cow milk is known to contain numerous proteins and other beneficial compounds for humans.
(§6) Since alpha-lactalbumin is the major milk protein present in milk, this protein was first tested to determine if the bioactive peptides were derived from alpha-Lactalbumin. Purified alpha-lactalbumin was therefore treated with EDTA and zinc acetate.

[14] = Absorption by gastrointestinal tract (earlier work); settings: before digestion with papain
From the text: as §6

Compound: O=c1[nH]cc(F)c(=O)[nH]1 [5-FU]
interaction of chemotherapy drug with zinc-charged peptide (apoptosis) [1]: synergistic

Compound: Cc1c2oc3c(C)ccc(C(=O)N[C@@H]4C(=O)N[C@H](C(C)C)C(=O)N5CCC[C@H]5C(=O)N(C)CC(=O)N(C)[C@@H](C(C)C)C(=O)O[C@@H]4C)c3nc-2c(C(=O)N[C@@H]2C(=O)N[C@H](C(C)C)C(=O)N3CCC[C@H]3C(=O)N(C)CC(=O)N(C)[C@@H](C(C)C)C(=O)O[C@@H]2C)c(N)c1=O [actinomycin] (I: T[dV]P[Sar][NMeV] / II: T[dV]P[Sar][NMeV]; ester I:1-I:C, II:1-II:C; linker I:N-II:N via Actinocin(9to1))
interaction of chemotherapy drug with zinc-charged peptide (apoptosis) [1]: synergistic

Compound: O=NN(CCCl)C(=O)NCCCl [carmustine]
interaction of chemotherapy drug with zinc-charged peptide (apoptosis) [1]: synergistic

Compound: COc1cccc2c1C(=O)c1c(O)c3c(c(O)c1C2=O)C[C@@](O)(C(=O)CO)C[C@@H]3O[C@H]1C[C@H](N)[C@H](O)[C@H](C)O1 [doxorubicin]
interaction of chemotherapy drug with zinc-charged peptide (apoptosis) [1]: synergistic

Compound: O=c1c(-c2ccc(O)cc2)coc2cc(O[C@@H]3O[C@H](CO)[C@@H](O)[C@H](O)[C@H]3O)cc(O)c12 [genistin]
interaction of chemotherapy drug with zinc-charged peptide (apoptosis) [1]: synergistic

hexokinase II inhibited ([5]; 5 μM): 28.6%
hexokinase II inhibited ([5]; 10 μM): 79.1%
hexokinase II inhibited ([5]; 20 µM): 94.6%
mitochondria associated hexokinase II activity inhibited [10]: 53%
Compound: E-Y-G-L-F-Q-I-S-N-K-L (EYGLFQISNKL; also: charged with zinc ions) [zinc-charged 4H, ID NO; 1 peptide derived from human alpha-lactalbumin, charged with zinc ions]
glycolysis inhibited [2]: 10.5%
glycolysis inhibition [3]: 0%
percentage of apoptosis in HT-29 after adding zinc-charged 4H to chemotherapy drugs ([1]; 4 μM for 6 hours after 12 hours drug pre-incubation): significantly increased
reduction of intracellular G-6-P level [4]: 39.6%
increase in brain ATP level [6]: 31.4%
lactate lower than control cells ([7]; 1 μM, HT-29 lysate, FIG. 4): 81.4%
glycolysis inhibited ([7]; HT-29, FIG. 8a): up to 34.7%
brain glycolysis enhanced [8]: 44%
muscle glycolysis increased [9]: 15%
glycolysis inhibited [11]: 11.1%

water solubility compared with 4H [12]: more water-soluble
Compound: EYGLFQISNKK [4H3, E-Y-G-L-F-Q-I-S-N-K-K]

Compound: zinc-bound alpha-lactalbumin: purified alpha-lactalbumin treated with EDTA and zinc acetate
apoptosis-inducing activity [13]: contain apoptosis-inducing activity
absorption by gastrointestinal tract [14]: unable to be absorbed
